# Measured values published in PubChem BioAssay AID2060610 (Molecular Pharmacology Branch, DTP, NCI, 2025).
# Tested on: 616215-338-R-J1-PDC complex spheroids, viability % test/control
# Assay: Anticancer human tumor 616215-338-R-J1-PDC patient-derived colon adenocarcinoma cell line growth inhibition [CLK]
# Settings: for IC50: curve of first compound; for viability, T/C: stronger effect = lower value
# Summary of the method: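 Multi-cell-type spheroids combined patient-derived tumor cells with HUVEC endothelial cells and human mesenchymal stem cells. Paired agents were dosed in half-log steps down from about clinical Cmax, or from 10 microM where Cmax was unknown.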
# [1] = second compound 0.0316 µM, first compound 0.0316 µM
# [2] = second compound 0.0316 µM, first compound 0.1 µM
# [3] = second compound 0.0316 µM, first compound 0.316 µM
# [4] = second compound 0.0316 µM, first compound 1 µM
# [5] = second compound 0.0316 µM, first compound 3.16 µM
# [6] = second compound 0.0316 µM, first compound 10 µM
# [7] = second compound 0.1 µM, first compound 0.0316 µM
# [8] = second compound 0.1 µM, first compound 0.1 µM
# [9] = second compound 0.1 µM, first compound 0.316 µM
# [10] = second compound 0.1 µM, first compound 1 µM
# [11] = second compound 0.1 µM, first compound 3.16 µM
# [12] = second compound 0.1 µM, first compound 10 µM
# [13] = second compound 0.316 µM, first compound 0.0316 µM
# [14] = second compound 0.316 µM, first compound 0.1 µM
# [15] = second compound 0.316 µM, first compound 0.316 µM
# [16] = second compound 0.316 µM, first compound 1 µM
# [17] = second compound 0.316 µM, first compound 3.16 µM
# [18] = second compound 0.316 µM, first compound 10 µM
# [19] = second compound 1 µM, first compound 0.0316 µM
# [20] = second compound 1 µM, first compound 0.1 µM
# [21] = second compound 1 µM, first compound 0.316 µM
# [22] = second compound 1 µM, first compound 1 µM
# [23] = second compound 1 µM, first compound 3.16 µM
# [24] = second compound 1 µM, first compound 10 µM
# [25] = second compound 3.16 µM, first compound 0.0316 µM
# [26] = second compound 3.16 µM, first compound 0.1 µM
# [27] = second compound 3.16 µM, first compound 0.316 µM
# [28] = second compound 3.16 µM, first compound 1 µM
# [29] = second compound 3.16 µM, first compound 3.16 µM
# [30] = second compound 3.16 µM, first compound 10 µM
# [31] = second compound 10 µM, first compound 0.0316 µM
# [32] = second compound 10 µM, first compound 0.1 µM
# [33] = second compound 10 µM, first compound 0.316 µM
# [34] = second compound 10 µM, first compound 1 µM
# [35] = second compound 10 µM, first compound 3.16 µM
# [36] = second compound 10 µM, first compound 10 µM
# 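Further: spheroids exposed to agents for 7 days.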
# 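Wherever viability, T/C is given: 100% = DMSO vehicle wells.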
structure (smiles),measurement,setting,value
CC(=O)O[C@H]1C(=O)[C@@]2(C)[C@H]([C@H](OC(=O)c3ccccc3)[C@]3(O)C[C@H](OC(=O)[C@H](O)[C@@H](NC(=O)c4ccccc4)c4ccccc4)C(C)=C1C3(C)C)[C@]1(OC(C)=O)CO[C@@H]1C[C@@H]2O + CNC(=O)c1ccc(Nc2nc(OC3CCCC3)c3c(-c4ccc5nc(C)oc5c4)c[nH]c3n2)c(OC)c1,IC50,second compound 0.0316 µM,< 31.6 nM
same,IC50,second compound 0.1 µM,< 31.6 nM
same,IC50,second compound 0.316 µM,< 31.6 nM
same,IC50,second compound 1 µM,< 31.6 nM
same,IC50,second compound 3.16 µM,< 31.6 nM
same,IC50,second compound 10 µM,< 31.6 nM
same,"viability, T/C",[1],35%
same,"viability, T/C",[2],27.8%
same,"viability, T/C",[3],23.3%
same,"viability, T/C",[4],27%
same,"viability, T/C",[5],30.8%
same,"viability, T/C",[6],36.2%
same,"viability, T/C",[7],39.9%
same,"viability, T/C",[8],37.7%
same,"viability, T/C",[9],35.2%
same,"viability, T/C",[10],38.9%
same,"viability, T/C",[11],41%
same,"viability, T/C",[12],44.2%
same,"viability, T/C",[13],34.8%
same,"viability, T/C",[14],40%
same,"viability, T/C",[15],32%
same,"viability, T/C",[16],38.3%
same,"viability, T/C",[17],58.5%
same,"viability, T/C",[18],46%
same,"viability, T/C",[19],45.6%
same,"viability, T/C",[20],53.2%
same,"viability, T/C",[21],56.6%
same,"viability, T/C",[22],60.6%
same,"viability, T/C",[23],59.5%
same,"viability, T/C",[24],58.1%
same,"viability, T/C",[25],34.3%
same,"viability, T/C",[26],51.5%
same,"viability, T/C",[27],63.4%
same,"viability, T/C",[28],63%
same,"viability, T/C",[29],72.1%
same,"viability, T/C",[30],63.9%
same,"viability, T/C",[31],39.5%
same,"viability, T/C",[32],43.2%
same,"viability, T/C",[33],70.7%
same,"viability, T/C",[34],75%
same,"viability, T/C",[35],62.7%
same,"viability, T/C",[36],62%
CCc1c2c(nc3ccc(O)cc13)-c1cc3c(c(=O)n1C2)COC(=O)[C@]3(O)CC + CNC(=O)c1ccc(Nc2nc(OC3CCCC3)c3c(-c4ccc5nc(C)oc5c4)c[nH]c3n2)c(OC)c1,IC50,second compound 0.0316 µM,13.5 nM
same,IC50,second compound 0.1 µM,7.31 nM
same,IC50,second compound 0.316 µM,< 3.16 nM
same,IC50,second compound 1 µM,3.52 nM
same,IC50,second compound 3.16 µM,< 3.16 nM
same,IC50,second compound 10 µM,< 3.16 nM
same,"viability, T/C","second compound 0.0316 µM, first compound 0.00316 µM",111%
same,"viability, T/C","second compound 0.0316 µM, first compound 0.01 µM",51.1%
same,"viability, T/C",[1],35.8%
same,"viability, T/C",[2],25.6%
same,"viability, T/C",[3],14.6%
same,"viability, T/C",[4],9.31%
same,"viability, T/C","second compound 0.1 µM, first compound 0.00316 µM",56.9%
same,"viability, T/C","second compound 0.1 µM, first compound 0.01 µM",51.3%
same,"viability, T/C",[7],27.3%
same,"viability, T/C",[8],21.5%
same,"viability, T/C",[9],14.6%
same,"viability, T/C",[10],5.13%
same,"viability, T/C","second compound 0.316 µM, first compound 0.00316 µM",37.9%
same,"viability, T/C","second compound 0.316 µM, first compound 0.01 µM",38.9%
same,"viability, T/C",[13],24.8%
same,"viability, T/C",[14],20.2%
same,"viability, T/C",[15],14.6%
same,"viability, T/C",[16],1.77%
same,"viability, T/C","second compound 1 µM, first compound 0.00316 µM",53.5%
same,"viability, T/C","second compound 1 µM, first compound 0.01 µM",28.5%
same,"viability, T/C",[19],18.4%
same,"viability, T/C",[20],17.2%
same,"viability, T/C",[21],11.8%
same,"viability, T/C",[22],1.4%
same,"viability, T/C","second compound 3.16 µM, first compound 0.00316 µM",37%
same,"viability, T/C","second compound 3.16 µM, first compound 0.01 µM",27.3%
same,"viability, T/C",[25],17.1%
same,"viability, T/C",[26],14.9%
same,"viability, T/C",[27],11.8%
same,"viability, T/C",[28],2.58%
same,"viability, T/C","second compound 10 µM, first compound 0.00316 µM",40.6%
same,"viability, T/C","second compound 10 µM, first compound 0.01 µM",25.2%
same,"viability, T/C",[31],18.5%
same,"viability, T/C",[32],17.3%
same,"viability, T/C",[33],11.6%
same,"viability, T/C",[34],1.03%
O=c1[nH]cc(F)c(=O)[nH]1 + CNC(=O)c1ccc(Nc2nc(OC3CCCC3)c3c(-c4ccc5nc(C)oc5c4)c[nH]c3n2)c(OC)c1,IC50,second compound 0.0316 µM,707 nM
same,IC50,second compound 0.1 µM,< 31.6 nM
same,IC50,second compound 0.316 µM,< 31.6 nM
same,IC50,second compound 1 µM,< 31.6 nM
same,IC50,second compound 3.16 µM,< 31.6 nM
same,IC50,second compound 10 µM,< 31.6 nM
same,"viability, T/C",[1],96.7%
same,"viability, T/C",[2],110%
same,"viability, T/C",[3],60.2%
same,"viability, T/C",[4],52.3%
same,"viability, T/C",[5],43.1%
same,"viability, T/C",[6],41.4%
same,"viability, T/C",[7],47%
same,"viability, T/C",[8],45.9%
same,"viability, T/C",[9],35%
same,"viability, T/C",[10],34.1%
same,"viability, T/C",[11],40.9%
same,"viability, T/C",[12],36.5%
same,"viability, T/C",[13],41.6%
same,"viability, T/C",[14],41.7%
same,"viability, T/C",[15],33.6%
same,"viability, T/C",[16],37.3%
same,"viability, T/C",[17],36.6%
same,"viability, T/C",[18],39.3%
same,"viability, T/C",[19],43.4%
same,"viability, T/C",[20],38%
same,"viability, T/C",[21],36.3%
same,"viability, T/C",[22],37.8%
same,"viability, T/C",[23],38.2%
same,"viability, T/C",[24],33.3%
same,"viability, T/C",[25],42.3%
same,"viability, T/C",[26],42.2%
same,"viability, T/C",[27],38%
same,"viability, T/C",[28],32.6%
same,"viability, T/C",[29],36%
same,"viability, T/C",[30],36.4%
same,"viability, T/C",[31],51.1%
same,"viability, T/C",[32],41.3%
same,"viability, T/C",[33],41.8%
same,"viability, T/C",[34],38.5%
same,"viability, T/C",[35],37.1%
same,"viability, T/C",[36],39.2%
